The record followed here is patent publication US10611764B2 (Wisconsin Alumni Research Foundation, priority 2017, dated 2020).

Structures are written as SMILES. Numbering of substitutions follows the chain as printed.

In data set [1] the target is T1, mouse AHR (mAHR B1-allele) (Mus musculus, UniProt P30561, M589L/N533S/P471L).
T1 sequence (P30561 10-805 P471L/N533S/M589L): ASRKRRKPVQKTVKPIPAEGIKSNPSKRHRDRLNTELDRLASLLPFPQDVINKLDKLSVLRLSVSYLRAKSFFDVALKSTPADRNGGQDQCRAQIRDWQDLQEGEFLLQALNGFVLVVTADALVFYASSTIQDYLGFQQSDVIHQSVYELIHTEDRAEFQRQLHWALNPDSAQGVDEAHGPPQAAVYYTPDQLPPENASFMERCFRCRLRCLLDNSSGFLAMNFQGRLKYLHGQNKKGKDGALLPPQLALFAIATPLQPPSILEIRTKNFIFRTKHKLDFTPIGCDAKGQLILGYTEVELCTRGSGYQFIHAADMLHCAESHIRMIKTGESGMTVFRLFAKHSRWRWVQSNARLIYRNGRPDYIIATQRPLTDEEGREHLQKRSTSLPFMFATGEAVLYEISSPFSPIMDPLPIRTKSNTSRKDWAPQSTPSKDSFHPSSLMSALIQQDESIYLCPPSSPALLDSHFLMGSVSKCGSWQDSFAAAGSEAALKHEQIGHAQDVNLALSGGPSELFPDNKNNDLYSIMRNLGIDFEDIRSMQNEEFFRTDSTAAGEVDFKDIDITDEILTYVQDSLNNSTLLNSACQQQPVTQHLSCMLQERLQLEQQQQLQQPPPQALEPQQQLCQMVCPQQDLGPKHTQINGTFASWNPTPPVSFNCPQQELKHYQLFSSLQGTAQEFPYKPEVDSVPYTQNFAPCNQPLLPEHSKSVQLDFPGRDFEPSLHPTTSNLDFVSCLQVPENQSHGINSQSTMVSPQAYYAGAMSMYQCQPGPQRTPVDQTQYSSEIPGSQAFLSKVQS
The data set can be described thus: cell-based. Here is the method: The wild type and mutant mAHR were cloned into the XhoI/SalI cloning sites of pTARGET (Promega, Madison, Wis.) using routine PCR and molecular cloning procedures using the pSport-mAHR plasmid (PL65) as template (Dolwick, Swanson et al. 1993). For recombinant expression of mAHR, COS-1 cells were cultured in 6 cm dishes and transfected with 2 μg of wild-type or mutant mAHR expression vector. Twenty-four hours after transfection, cells were collected, and the whole cell extracts were prepared by celLytic M reagent (Sigma-Aldrich, St Louis, Mo.). 100 μg of whole cell extract was analyzed by western blot using antibodies that specifically recognize the mAHR (bear-2) and β-actin (Sigma).
COS-1 cells were cultured in 96-well plates and transiently transfected with pTarget vector containing the expression cassette of wild-type or mutant mAHR, or empty vector (3 ng), together with pGudLu6.1 DREs-driven luciferase reporter vector (14 ng) (Han, Nagy et al. 2004) and TK-renilla luciferase vector (3 ng) (Invitrogen, Carlsbad Calif.). […] The expressed luciferase activity was measured by ENSPIRE plate reader (Perkin Elmer, USA). Data analysis and simulation of dose response curves were performed using GraphPad Prism 5 (GraphPad software Inc., La Jolla, Calif.). The experiments were performed in triplicate and repeated at least three times. Representative results of one repeat are shown as mean±SEM.

Data set [2] concerns the target T2, mAHR Q377A mutant (Mus musculus, UniProt P30561, Q377A).
T2 construct: expressed in transfected cells; host or cells: COS-1
T2 sequence (P30561 10-805 Q377A limits assumed): T1 sequence (P30561 10-805 P471L/N533S/M589L) with Q368A, L462P, S524N, L580M
Briefly: Luciferase reporter gene assay, mutant mAHR Q377A in COS-1 cells. Format: cell-based. To be noted: relative to WT mAHR. In general terms: Reporter assays use an easily measured gene product as a stand-in for the process of interest.

Data set [3] can be described thus: Solubility in commonly used (NMR) solvents. Format: physicochemical.
Data set [4] has as its system mAHR H285A mutant. The data set can be described thus: Luciferase reporter gene assay, mutant mAHR H285A in COS-1 cells. Type of data set: cell-based, mouse. The following applies: relative to WT mAHR.
Data set [5] relates to Salmonella typhimurium tester strains (TA97a, TA98, TA100, and TA1535) and Escherichia coli strain (WP2 uvrA pKM101). Briefly: Ames screening. The following applies: with and without S9, 7.8-250 ng/well. The method, then: The Ames screening detects both frameshift and base-pair substitution mutations using 4 Salmonella typhimurium tester strains (TA97a, TA98, TA100, and TA1535) and 1 Escherichia coli strain (WP2 uvrA pKM101). Strains TA97a and TA98 detect frameshift mutations, and TA100, TA1535, and WP2 uvrA pKM101 detect base-pair substitution mutations. This scaled-down Ames test uses minimal compound, is conducted with and without metabolic activation (S9 fraction), and uses multiwell plates. The Ames screen for TEACOP 270 was tested in duplicate with strains TA97a, TA98, TA100, TA1535, and WP2 uvrA pKM101 in the presence and absence of a metabolic activation system (Aroclor™ 1254 induced rat liver S9 microsomal fraction) at 7.8, 15.5, 31, 62.5, 125, and 250 ng/well. Positive control compounds were used at 4 different concentrations to ensure the assay system was sensitive to known mutagenic compounds. DMSO was used as the vehicle control.

`C1=Cc2c3ccccc3nc3nc4ccccc4c(c23)N1` [Compound 4]: a half-maximal effect in data set [1] (EC50) was put at 0.378 nM. Further, the “fold lower measured activity than Compound 4” value in data set [1] (purified sample largely contaminated by lipids, FIG. 5c) was “more than 10 fold”. In addition, the “effect of Q377A mutation on AHR induction activity” value in data set [2] is listed as “barely affected”. Also, the “solubility in CDCl3” value in data set [3] (TFA salt) is “good solubility”. Further, the solubility result in data set [3] (free base form) is recorded as “poor solubility”. In addition, the “solubility in commonly used solvents (CDCl3, CD3OD, DMSO-d6, etc)” value in data set [3] (isolated material) was “very poor solubility”. For the same molecule, the “effect of H285A mutation on AHR induction activity” value in data set [4] is recorded as “drastically affected”. Also, in data set [5], the “mutagenicity (Ames test)” value is listed as “No mutagenicity is detected”.

As usually defined, the EC50 is the midpoint of the concentration-response curve. A low value points to a more potent agent.
